Data published in patent US9221875B2, “Amphiphilic peptides for treatment of keratitis” (Agency for Science, Technology and Research, priority 2013, dated 2015).
Converted amounts (≈) assume the structure as drawn. Like-named read-outs stand apart in the source and are kept apart here. Marks after values point to notes of the source that are not given here. Peptide text beside a SMILES is read from it.

How the values were obtained:
[1] = test system: 5 microorganisms tested (S. epidermidis, S. aureus, E. coli, P. aeruginosa, C. albicans); assay: Mean MIC over the panel and selectivity index (Example 1); type: cell-based
Protocol: Red blood cells suspension incubated with PBS was used as negative control.

[2] = Acute in vivo toxicity, intravenous tail vein injection; details: mouse, mice
Protocol: For the β-sheet forming peptides to qualify as suitable therapeutic candidates, their antimicrobial activities should be considered in the light of their selectivity for microbial cell membranes so as to minimize toxicities towards mammalian cells. […] The selectivity indices (SIs) of the peptides were further evaluated as a comparison of the safety and efficacies of the different peptide sequences (Table 2). SIs of the various peptides were calculated as the ratio of the HC10 value (defined as the lowest peptide concentration that induces 10% or more haemolysis) to the GM (geometric mean MICs of the 5 microbial strains tested). […] The acute in vivo toxicity testing was performed via intravenous tail vein injection of solutions containing representative peptides of n=2 [(IRIK)2-NH2 (SEQ ID NO: 17)] and n=3 [(IRVK)3-NH2 (SEQ ID NO: 22)] repeat units in mice.

[3] = test system: E. coli and S. aureus; assay: FE-SEM imaging of treated bacteria (Example 1); type: cell-based, Escherichia coli, Staphylococcus aureus; details: 2 h treatment
Protocol: E. coli suspension at ˜3×10^8 CFU ml^−1 (100 μL) was incubated with an equal volume of broth containing 20% (by volume) of water and a lethal dose (250 mg L^−1) of a representative peptide in a 96 well-plate for 2 h. Eight replicates of each condition was pooled into a microfuge tube, pelleted down at 5000×g for 5 min, and rinsed twice with PBS. The samples were then fixed with 4% formaldehyde at room temperature for 15 min, followed by rinsing with DI water. Dehydration of the cells was performed using a series of graded ethanol solutions (35, 50, 75, 90, 95 and 100%). The samples were allowed to air-dry, mounted on carbon table, and sputter coated with platinum for imaging with a FE-SEM setup (JEOL JSM-7400F, Japan).

[4] = test system: S. aureus biofilms; type: cell-based, Staphylococcus aureus; details: 24 h; for killing of S. aureus residing in biofilms: MIC, 4×MIC, 8×MIC
Protocol: The wells were then rinsed once with 100 μL of PBS to remove planktonic cells and loosely attached cells, and replenished with 100 μL of fresh broth. Biofilm formation was allowed to proceed up to 6-8 days with daily rinsing and media changes before use in experiments. […] Subsequently, the solutions were removed and 120 μL of activated XTT solution was added into each well. […] Relative cell viability was expressed as [(A490-[…])sample/(A490-[…])control]×100%.

[5] = test system: S. aureus biofilms; assay: Biofilm biomass, crystal violet staining; type: cell-based, Staphylococcus aureus; details: MIC, 4×MIC, 8×MIC, 24 h
Protocol: The biomass of the biofilms was estimated by a crystal violet staining assay. Briefly, the formed biofilms were first treated with the peptides for 24 h as described above. After aspirating the culture medium, the biofilms were washed once with PBS, fixed with methanol for 15 min at room temperature and stained with 100 μL of 0.1% (weight by volume) crystal violet for 10 min. The excess crystal violet dye was removed by rinsing the wells with DI water for five times. The dye that is associated with the biofilm was extracted using 100 μL of 33% glacial acetic acid per well and quantified by measuring the absorbance at a wavelength of 570 nm using a microplate reader (TECAN, Switzerland). The relative amount of biomass remaining after peptide treatment was expressed as a percentage of the control treated with broth containing 10% (by volume) of water. Data represent mean±standard deviations of four replicates per concentration.

[6] = test system: rabbit red blood cells; type: cell-based; details: red cells of rabbit, 1 h
[7] = test system: trypsin and proteinase K; type: in vitro ADME
Protocol: One of the major factors limiting the clinical utility of AMPs lies in their instability to rapid degradation by proteases which are present abundantly in biological fluids and/or secreted by microorganisms. In order to evaluate the proteolytic stability of the designed β-sheet forming peptides, the D- and L-isoforms of the n=2 peptide sequence (IK8-all D or IK8-all L, respectively) were treated with the broad spectrum serine proteases, trypsin and proteinase K, for 6 h and evaluated their antimicrobial activities against S. aureus, E. coli and P. aeruginosa. […] The structural integrity of synthetic peptides following treatment with both proteases was also evaluated using MALDI-TOF mass spectroscopy. […] The cleavage sites of both enzymes for the IK8-all L peptide are illustrated in FIG. 19a with the mass spectra peaks assigned to the major fragments.

[8] = test system: P. aeruginosa; assay: MBC against clinical isolates; type: cell-based; details: clinical isolate
[9] = test system: C. neoformans; assay: MBC against clinical isolates; type: cell-based; details: clinical isolate
[10] = test system: F. solani; type: cell-based; details: 24 h
Protocol: The MICs of peptides were determined against the fungi C. albicans (American Type Culture Collection, ATCC) and F. solani (ATCC) by the broth microdilution method. […] F. solani, were cultured on sabouraud dextrose agar plates in incubator at 37° C. To collect conidia following incubation, conidia of F. solani species were harvested and standardized to 1×10^8 spores/ml before performing the experiments. Sabouraud dextrose broth (90 μL) was added to the wells of culture plates. […] The plates were incubated at 37° C. and examined macroscopically after 24 h for the growth of F. solani. Appropriate control wells without any treatment were included in the study. Peptide were considered to be active if the wells appeared clear without any visible growth of F. solani, and the results were expressed as MIC. The assay was performed in four replicates for each concentration.

[11] = test system: S. epidermidis; details: 18 h
[12] = test system: S. aureus; details: 18 h
[13] = test system: E. coli; details: 18 h
[14] = test system: P. aeruginosa; details: 18 h
[15] = test system: C. albicans; details: 42 h
[16] = test system: S. epidermidis; details: 18 h; remark: listed apart in the source
[17] = test system: S. aureus; details: 18 h; remark: listed apart in the source
[18] = test system: E. coli; details: 18 h; remark: listed apart in the source
[19] = test system: P. aeruginosa; details: 18 h; remark: listed apart in the source
[20] = test system: C. albicans
[21] = test system: Methicillin-resistant S. aureus; details: clinical isolate
[22] = test system: A. baumanni
[23] = test system: Vancomycin-resistant Enterococci; details: clinical isolate
[24] = test system: 5 microorganisms tested (S. epidermidis, S. aureus, E. coli, P. aeruginosa, C. albicans); assay: Mean MIC over the panel and selectivity index (Example 2)
[25] = test system: C. albicans keratitis; assay: Contact lens-associated C. albicans keratitis mouse model
[26] = test system: LPS-stimulated NO production in NR8383 rat macrophage cell line; assay: Endotoxin neutralization assay (Griess nitrite); type: cell-based; details: 125 mg L^−1 peptide, 100 ng mL^−1 LPS, 18 h
Protocol: Untreated cells and cells that were stimulated with LPS alone served as the […] controls, respectively. The amount of NO produced was estimated by quantifying the concentration of the stable NO metabolite nitrite in the isolated supernatant fractions using the Griess reagent (1% sulphanilamide, 0.1% N-1-napthylethylenediamine dihydrochloride, 5% phosphoric acid) according to the manufacturer's protocol. The absorbance was measured at 540 nm and nitrite concentrations were determined using a standard reference curve prepared from known concentrations of NaNO2 solutions.

[27] = test system: clinically isolated Mycobacterium tuberculosis
[28] = test system: S. aureus; type: cell-based, Staphylococcus aureus; details: passage 20
[29] = topical eye drops, peptides 3000 mg/L, amphotericin B 1000 mg/L

## CC[C@H](C)[C@H](N)C(=O)N[C@@H](CCCNC(=N)N)C(=O)N[C@H](C(=O)N[C@@H](CCCCN)C(=O)N[C@H](C(=O)N[C@@H](CCCNC(=N)N)C(=O)N[C@H](C(=O)N[C@@H](CCCCN)C(N)=O)[C@@H](C)CC)[C@@H](C)CC)[C@@H](C)CC [(IRIK)2-NH2] (H-IRIKIRIK-NH2; N-terminus assumed)
[1]
  GM, geometric mean of MIC values for the 5 microorganisms tested: 23.4 µg/mL
[2]
  LD50: 35.2 mg/kg
[3]
  surface morphology under FE-SEM: rough and uneven
[4]
  killing of S. aureus residing in biofilms: dose-dependent killing
[4]; Staphylococcus aureus, 4 ×MIC
  cell viability of S. aureus in biofilms: less than 10%
[5]
  amount of biomass in the treated biofilms: reduced in a dose-dependent manner
[6]
  HC10, haemolysis concentration 10%: lowest peptide concentration that induces ≧10% haemolysis: 2000 mg/L
[7]
  antimicrobial activity after protease treatment: complete loss in bacterial inhibitory activities
  structural integrity after protease treatment, MALDI-TOF MS: degradation of the intact peptide
[8]
  MBC P. aeruginosa: 7.8 µg/mL (≈ 7.51 µM)
[9]
  MBC C. neoformans: 7.8 µg/mL (≈ 7.51 µM)
[10]
  MIC F. solani: 31.3 µg/mL (≈ 30.1 µM)
[11]
  MIC S. epidermidis: 3.9 µg/mL (≈ 3.76 µM)
[12]
  MIC S. aureus: 62.5 µg/mL (≈ 60.2 µM)
[13]
  MIC E. coli: 15.6 µg/mL (≈ 15 µM)
[14]
  MIC P. aeruginosa: 31.3 µg/mL (≈ 30.1 µM)
[15]
  MIC C. albicans: 3.9 µg/mL (≈ 3.76 µM)
[16]
  MIC S. epidermidis: 3.9 µg/mL (≈ 3.76 µM)
[17]
  MIC S. aureus: 62.5 µg/mL (≈ 60.2 µM)
[18]
  MIC E. coli: 15.6 µg/mL (≈ 15 µM)
[19]
  MIC P aeruginosa: 31.3 µg/mL (≈ 30.1 µM)
[20]
  MIC C. albicans: 3.9 µg/mL (≈ 3.76 µM)
[21]
  MBC Methicillin-resistant S. aureus: 31.3 µg/mL (≈ 30.1 µM)
[22]
  MBC A. baumanni: 125 µg/mL (≈ 120 µM)
[23]
  MBC Vancomycin-resistant Enterococci: 15.6 µg/mL (≈ 15 µM)
[24]
  GM, geometric mean of MIC values for the 5 microorganisms tested: 23.4 µg/mL
[25]; C. albicans counts in mice cornea, agar plating
  fungal cells eradicated from the biofilms compared to the untreated control group: ~90%
[25]; [29]
  depth of hyphal invasion into the cornea, PAS histology: reduced the maximal depth of hyphal invasion
  resolution of the keratitis infection (eye appearance): significant resolution of the keratitis infection
[25]; topical eye drops, peptides 3000 mg/L, amphotericin B 1000 mg/L, P<0.01
  clinical scores of mice corneas (slit lamp): significantly lower than that in the control group

## CC[C@H](C)[C@H](N)C(=O)N[C@@H](CCCNC(=N)N)C(=O)N[C@H](C(=O)N[C@@H](CCCCN)C(=O)N[C@H](C(=O)N[C@@H](CCCNC(=N)N)C(=O)N[C@H](C(=O)N[C@@H](CCCCN)C(=O)N[C@H](C(=O)N[C@@H](CCCNC(=N)N)C(=O)N[C@H](C(=O)N[C@@H](CCCCN)C(N)=O)C(C)C)[C@@H](C)CC)C(C)C)[C@@H](C)CC)C(C)C [(IRVK)3-NH2] (H-IRVKIRVKIRVK-NH2; N-terminus assumed)
[1]
  GM, geometric mean of MIC values for the 5 microorganisms tested: 47.3 µg/mL
[2]
  LD50: 35.2 mg/kg
[3]
  surface morphology under FE-SEM: rough and uneven
[4]
  killing of S. aureus residing in biofilms: dose-dependent killing
[5]
  amount of biomass in the treated biofilms: reduced in a dose-dependent manner
[26]
  nitrite concentration, LPS-stimulated NO production: reduced to the control level
[6]
  HC10, haemolysis concentration 10%: lowest peptide concentration that induces ≧10% haemolysis: >125^e) mg L^−1
[8]
  MBC P. aeruginosa: 15.6 µg/mL (≈ 10.4 µM)
[9]
  MBC C. neoformans: 15.6 µg/mL (≈ 10.4 µM)
[11]
  MIC S. epidermidis: 2.0 µg/mL (≈ 1.33 µM)
[12]
  MIC S. aureus: 31.3 µg/mL (≈ 20.8 µM)
[13]
  MIC E. coli: 15.6 µg/mL (≈ 10.4 µM)
[14]
  MIC P. aeruginosa: 62.5 µg/mL (≈ 41.5 µM)
[15]
  MIC C. albicans: 125 µg/mL (≈ 82.9 µM)
[16]
  MIC S. epidermidis: 2.0 µg/mL (≈ 1.33 µM)
[17]
  MIC S. aureus: 31.3 µg/mL (≈ 20.8 µM)
[18]
  MIC E. coli: 15.6 µg/mL (≈ 10.4 µM)
[19]
  MIC P aeruginosa: 62.5 µg/mL (≈ 41.5 µM)
[20]
  MIC C. albicans: 125 µg/mL (≈ 82.9 µM)
[21]
  MBC Methicillin-resistant S. aureus: 15.6 µg/mL (≈ 10.4 µM)
[22]; clinical isolate, multidrug resistant
  MBC A. baumanni: 15.6 µg/mL (≈ 10.4 µM)
[23]
  MBC Vancomycin-resistant Enterococci: 7.8 µg/mL (≈ 5.18 µM)
[27]; strain number 1140
  MIC M. tuberculosis: 15.6 µg/mL (≈ 10.4 µM)
[27]; strain number 1146
  MIC M. tuberculosis: >31.3 µg/mL
[24]
  GM, geometric mean of MIC values for the 5 microorganisms tested: 47.3 µg/mL

## CC1(C)S[C@@H]2[C@H](NC(=O)Cc3ccccc3)C(=O)N2[C@H]1C(=O)O [penicillin G, reference compound]
[28]
  MICn/MIC0, fold increase in MIC: 32
